The source of these data is ChEMBL document CHEMBL1156687, “Design and microwave-assisted synthesis of 5-trifluoromethyl-4,5-dihydro-1H-pyrazoles: novel agents with analgesic and anti-inflammatory properties” (Eur J Med Chem, 2008).

Each structure is given as a SMILES string. Calls of active or inactive are those of the source. The rule behind the calls is not given here.

Data set [1] deals with Mus musculus. In words: Analgesic activity against formalin-induced neurogenic pain in albino mouse assessed as time spent on paw licking at 1000 umol/kg, sc administered 20 mins before formalin challenge assessed for 30 mins at 5 mins intervals. It counts as functional.
For data set [2], the system named is Mus musculus. Kind of data set: Analgesic activity against formalin-induced inflammatory pain in albino mouse assessed as time spent on paw licking at 1000 umol/kg, sc administered 20 mins before formalin challenge assessed for 30 mins at 5 mins intervals. In kind it is functional.
Data set [3] has as its system Mus musculus. Kind of data set: Analgesic activity against formalin-induced neurogenic pain in albino mouse assessed as time spent on paw licking at 1500 umol/kg, sc administered 20 mins before formalin challenge assessed for 30 mins at 5 mins intervals. It counts as functional, organism-based.
Data set [4] relates to Mus musculus. Kind of data set: Analgesic activity against formalin-induced inflammatory pain in albino mouse assessed as time spent on paw licking at 1500 umol/kg, sc administered 20 mins before formalin challenge assessed for 30 mins at 5 mins intervals. It counts as functional, organism-based.
Data set [5] concerns Mus musculus. In words: Analgesic activity in albino mouse assessed as response latency at 1000 ug/ml, sc after 30 mins by hot plate method. In kind it is functional, organism-based.
In data set [6] the test system is Mus musculus. In words: Analgesic activity in albino mouse assessed as inhibition of carrageenan-induced paw edema at 1000 ug/ml. It counts as functional. The arrangement: scale not given: the % may be the effect or the level left. In general terms: Carrageenan injected into the paw causes an acute inflammation.
Data set [7] deals with Mus musculus. Kind of data set: Analgesic activity in albino mouse assessed as falling latency at 1000 ug/ml, sc after 30 mins by rotarod test. In kind it is functional. A general note: The rotarod test checks motor coordination on a turning rod.
In data set [8] the test system is Mus musculus. In words: Analgesic activity in albino mouse assessed as number of falls from the rod at 1000 ug/ml, sc after 4 mins by rotarod test. It counts as functional.
Data set [9] relates to Mus musculus. In words: Increase in locomotor activity in albino mouse assessed as number of crossing at 1000 umol/kg. It counts as functional.
The species entered for data set [10] is Mus musculus. Kind of data set: Toxicity against in albino mouse after 72 hrs. Particulars: in vivo. It counts as organism-based.
Data set [11] relates to Mus musculus. Kind of data set: Analgesic activity against formalin-induced inflammatory pain in albino mouse assessed as time spent on paw licking at 75 umol/kg, sc administered 20 mins before formalin challenge assessed for 30 mins at 5 mins intervals. In kind it is functional, organism-based.
Data set [12] has as its system Mus musculus. In words: Analgesic activity against formalin-induced inflammatory pain in albino mouse assessed as time spent on paw licking at 250 umol/kg, sc administered 20 mins before formalin challenge assessed for 30 mins at 5 mins intervals. In kind it is functional, organism-based.
The subject of data set [13] is Mus musculus. Kind of data set: Analgesic activity against formalin-induced inflammatory pain in albino mouse assessed as time spent on paw licking at 750 umol/kg, sc administered 20 mins before formalin challenge assessed for 30 mins at 5 mins intervals. It counts as functional.
Data set [14] has as its system Mus musculus. In words: Analgesic activity against formalin-induced neurogenic pain in albino mouse assessed as time spent on paw licking at 750 umol/kg, sc administered 20 mins before formalin challenge assessed for 30 mins at 5 mins intervals. It counts as functional.
In data set [15] the test system is Mus musculus. In words: Analgesic activity against formalin-induced inflammatory pain in albino mouse assessed as time spent on paw licking at 25 umol/kg, sc administered 20 mins before formalin challenge assessed for 30 mins at 5 mins intervals. It counts as functional, organism-based.
The test system of data set [16] is Mus musculus. Kind of data set: Analgesic activity in albino mouse assessed as response latency at 1500 ug/ml, sc after 30 mins by hot plate method. It counts as functional, organism-based. On the technique in general: Hot-plate and tail-flick tests time the reaction to a heat stimulus.
Data set [17] concerns Mus musculus. Kind of data set: Increase in locomotor activity in albino mouse assessed as number of crossing at 1500 umol/kg. In kind it is functional.

As for `CC1C=NN(C(N)=O)C1(O)C(F)(F)F` (centres undefined), the Activity in the data set on Mus musculus [1] amounted to 74.6%; with Mus musculus [2], 97.2%; in the data set on Mus musculus [6], 34.6%; in the data set on Mus musculus [7], 62.6 s; in the data set with Mus musculus [8], 5.1; with Mus musculus [9] it was 167.3. Moreover, in the data set listed under Mus musculus [10], the Activity entry was “Non-toxic”. Moreover, the outcome in the data set on Mus musculus [3] and in the data set on Mus musculus [4] was Active. The outcome in the data set with Mus musculus [5] was inactive.

Take `CCCC1=NN(C(N)=O)C(O)(C(F)(F)F)C1` (centres undefined): the result in the data set on Mus musculus [11] was Active. In addition, the outcome in the data set on Mus musculus [12] was inactive. Further, the figures for the Activity in the data set with Mus musculus [13] and with Mus musculus [14] were 70.1% and 48.2%, respectively.

With `NC(=O)N1N=CCC1(O)C(F)(F)F` (centres undefined), the Activity in the data set with Mus musculus [1] was determined as 32.8%; in the data set on Mus musculus [2], 70.8%.

Regarding `CC(C)C1=NN(C(N)=O)C(O)(C(F)(F)F)C1` (centres undefined), the Activity in the data set on Mus musculus [13] is listed as 67%; in the data set with Mus musculus [14], 51.9%; in the data set filed under Mus musculus [10] it was “Non-toxic”. Besides, the outcome in the data set with Mus musculus [15] was Active.

Regarding `NC(=O)N1N=C(c2ccccc2)CC1(O)C(F)(F)F` (centres undefined), the figures for the Activity with Mus musculus [1] and with Mus musculus [2] were 10% and 8.2%, respectively.

With `CC1=NN(C(N)=O)C(O)(C(F)(F)F)C1` (centres undefined), the values for the Activity in the data set with Mus musculus [1] and in the data set on Mus musculus [2] were 23.3% and 55.5%, respectively.

In the case of `Cc1c(N(C)CS(=O)(=O)[O-])c(=O)n(-c2ccccc2)n1C.[Na+]` [DIPYRONE SODIUM], the result in the data set on Mus musculus [3] and with Mus musculus [16] was Active. In the data set with Mus musculus [9], the Activity worked out at 87.7.

As to `CCC1=NN(C(N)=O)C(O)(C(F)(F)F)C1` (centres undefined), the Activity in the data set with Mus musculus [1] was determined as 87.9%; in the data set with Mus musculus [2], 98.2%; in the data set with Mus musculus [6], 43.7%; in the data set with Mus musculus [7] it was 112.5 s; with Mus musculus [8], 3.7; in the data set on Mus musculus [9], 165.6. Moreover, the outcome with Mus musculus [3] and with Mus musculus [4] was Active. For the same molecule, the outcome with Mus musculus [5] was inactive.

For `CC(C)(C)C1=NN(C(N)=O)C(O)(C(F)(F)F)C1` (centres undefined), the Activity in the data set with Mus musculus [1] came to 59.1%; with Mus musculus [2], 72.9%.

With `NC(=O)N1N=C(c2ccc(Br)cc2)CC1(O)C(F)(F)F` (centres undefined), the Activity was found to be 33.3% in the data set with Mus musculus [1] and 47.3% in the data set on Mus musculus [2].

As for `CCCCC1=NN(C(N)=O)C(O)(C(F)(F)F)C1` (centres undefined), the Activity was -22.3% in the data set with Mus musculus [13] and 46% in the data set with Mus musculus [14].

`NC(=O)c1ccccc1O` [SALICYLAMIDE]: the result in the data set on Mus musculus [3] was inactive. The Activity with Mus musculus [17] was determined as 102.1.
